Patent publication US20250049034A1, “Composition” (Syngenta Crop Protection AG, priority 2021, published 2025)

Assay: Chemical stability of the active ingredients in the composition
Type: physicochemical
Settings: in Composition 1
Procedure: The stability of the active ingredients per se were also measured under a wide variation of temperature conditions.

Structure (SMILES)	active ingredient content (2 wks@ 54° C.)	active ingredient content (2 wks@ −18° C.)	active ingredient content (Initial)
CCOc1nc(F)cc2nc(S(=O)(=O)Nc3c(Cl)cccc3C(=O)OC)nn12 [Cloransulam-methyl]	0.70 % wt.	0.76 % wt.	0.77 % wt.
CSc1nnc(C(C)(C)C)c(=O)n1N [Metribuzin]	7.1 % wt.	7.1 % wt.	7.2 % wt.
CCc1cccc(C)c1N(C(=O)CCl)C(C)COC (stereo not drawn) [S-metalachlor, S-metolachlor]	38.4 % wt.	38.2 % wt.	38.5 % wt.
